Results: publication PMC2064103 (The Journal of Cell Biology, 2007)

Legend:
Assay in all cases: radiolabelled glycopeptide formation, ConA Sepharose capture, gamma counting
T. vaginalis OST = assay type: biochemical, Trichomonas vaginalis; conditions: 10 μM acceptor tripeptide; Mg2+, Mn2+, pH 7.4; non-cooperative
E. histolytica OST = assay type: biochemical, Entamoeba histolytica; conditions: 15 μM acceptor tripeptide; Mg2+, Mn2+, pH 7.4; non-cooperative
T. cruzi OST = assay type: biochemical, Trypanosoma cruzi; conditions: 10 μM acceptor tripeptide; Mg2+, Mn2+, pH 7.4; non-cooperative

| Km (T. vaginalis OST) | Km (E. histolytica OST) | Km (T. cruzi OST) | Substance |
| --- | --- | --- | --- |
| 0.22 µM | 0.72 µM | – | M5GN2-PP-Dol |
| – | – | 0.49 µM | M9GN2-PP-Dol |
